US11390631B1, “Benzodiazepine derivatives as RSV inhibitors” (priority 2015, dated 2022)

Each compound was assayed on Human RSV-A (“Long” strain) (assay: RSV-A assay: inhibition of cytopathic effect in Hep-2 cells, ATPlite readout). Conditions: Hep-2 cells, MOI 0.1, 5-day incubation, ATPlite; read-out: Human RSV-A (“Long” strain) EC50.
Type: cell-based, Human respiratory syncytial virus (HRSV)
Method in brief: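 Cytopathic-effect protection was read as ATP content (ATPlite luminescence) after a 5-day incubation. Setup: Hep-2 cells at 8,000 per well, RSV-A Long at MOI 0.1, 2-fold serial compound dilutions in duplicate. Cytotoxicity (CC50) was measured on an identical uninfected plate run in parallel.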

`COC[C@H]1C[C@@H]1c1sc(C(F)(F)F)nc1-c1nnc(N[C@H]2N=C(c3ccccc3)c3ccccc3NC2=O)o1` [Example 395] and `COCCCc1cc(C(F)(F)F)cnc1-c1nnc(N[C@H]2N=C(c3ccccc3)c3ccccc3NC2=O)o1` [Example 413] cannot be ordered by EC50: > 800 nM for the first, > 800 nM for the second.

Same assay, conditions: human respiratory syncytial virus, HEp-2, 120 h, read-out: Human RSV-A (“Long” strain) EC50

`O=C1Nc2ccccc2C(c2ccccc2)=NC1Nc1nnc(C2CC2)[nH]1` (centres unmarked) [Example 372] and `O=C1Nc2ccccc2C(c2ccccc2)=NC1Nc1ccc(-c2ccc(F)cc2)nn1` (centres unmarked) [Example 374] cannot be ordered by EC50: > 800 nM for the first, > 800 nM for the second.

`O=C1Nc2ccccc2C(c2ccccc2)=NC1Nc1cnc(-c2ccc(F)cc2)cn1` (centres unmarked) [Example 373] and `COc1ccc(-c2ccc(NC3N=C(c4ccccc4)c4ccccc4NC3=O)nn2)cc1` (centres unmarked) [Example 376] cannot be ordered by EC50: > 800 nM for the first, > 800 nM for the second.

`O=C1Nc2ccccc2C(c2ccccc2)=NC1Nc1ccc(-c2ccncc2)nn1` (centres unmarked) [Example 375] and `O=C1Nc2ccccc2C(c2ccccc2)=NC1Nc1ccc(-c2ccccc2N2CCOCC2)nn1` (centres unmarked) [Example 378] cannot be ordered by EC50: > 800 nM for the first, > 800 nM for the second.

First: O=C1Nc2ccccc2C(c2ccccc2F)=NC1Nc1nnc(-c2ccc(F)cc2)o1 (centres unmarked) [Example 379]
Second: O=C1Nc2ccccc2C(c2cccc(F)c2)=NC1Nc1nnc(-c2ccc(F)cc2)o1 (centres unmarked) [Example 380]
The EC50 of the first is higher: > 800 nM for the first, 400 to 800 nM for the second.

`N#Cc1cccc(C2=NC(Nc3nnc(-c4ccc(F)cc4)o3)C(=O)Nc3ccccc32)c1` (centres unmarked) [Example 381] and `O=C1Nc2ccccc2C(c2ccc(F)cc2)=NC1Nc1nnc(-c2ccc(F)cc2)o1` (centres unmarked) [Example 382] cannot be ordered by EC50: > 800 nM for the first, > 800 nM for the second.

`O=C1Nc2ccccc2C(c2ccccc2)=N[C@@H]1Nc1nnc(-c2cc(C(F)(F)F)sc2N2CCOCC2)o1` [Example 383] and `O=C1Nc2ccccc2C(c2ccccc2)=N[C@@H]1Nc1nnc(-c2cc(C3CC3)sc2N2CCOCC2)o1` [Example 384] cannot be ordered by EC50: < 400 nM for the first, < 400 nM for the second.

`O=C1Nc2ccccc2C(c2ccccc2)=N[C@@H]1Nc1nnc(-c2nc(-c3ccc(F)cn3)sc2N2CCOCC2)o1` [Example 389] and `O=C1Nc2ccccc2C(c2ccccc2)=N[C@@H]1Nc1nnc(-c2nc(-c3ccc(C(F)(F)F)nc3)sc2N2CCOCC2)o1` [Example 390] cannot be ordered by EC50: < 400 nM for the first, < 400 nM for the second.

`COCCCc1sc(C(F)(F)F)nc1-c1nnc(N[C@H]2N=C(c3ccccc3)c3ccccc3NC2=O)o1` [Example 396] and `COCC(C)(C)Nc1cc(C(F)(F)F)cnc1-c1nnc(N[C@H]2N=C(c3ccccc3)c3ccccc3NC2=O)o1` [Example 414] cannot be ordered by EC50: > 800 nM for the first, > 800 nM for the second.

`Cn1cc(-c2nc(-c3nnc(N[C@H]4N=C(c5ccccc5)c5ccccc5NC4=O)o3)c(N3CCOCC3)s2)cn1` [Example 399] and `O=C1Nc2ccccc2C(c2ccccc2)=NC1Nc1nnc(-c2nc(Br)sc2N2CCOCC2)o1` (centres unmarked) [Example 400] cannot be ordered by EC50: < 400 nM for the first, < 400 nM for the second.

`CCn1cc(-c2nnc(N[C@H]3N=C(c4ccccc4)c4ccccc4NC3=O)o2)c(N2CCOCC2)n1` [Example 401] and `COCCn1cc(-c2nnc(N[C@H]3N=C(c4ccccc4)c4ccccc4NC3=O)o2)c(N2CCOCC2)n1` [Example 402] cannot be ordered by EC50: < 400 nM for the first, < 400 nM for the second.

`O=C1Nc2ccccc2C(c2ccccc2)=N[C@@H]1Nc1nnc(-c2oc3ncccc3c2N2CCOCC2)o1` [Example 404] and `C#Cc1nc(-c2nnc(N[C@H]3N=C(c4ccccc4)c4ccccc4NC3=O)o2)c(N2CCOCC2)s1` [Example 406] cannot be ordered by EC50: < 400 nM for the first, < 400 nM for the second.

Compared with `O=C1Nc2ccccc2C(c2ccccc2)=N[C@@H]1Nc1nnc(-c2nc(C3CCCCC3)sc2N2CCOCC2)o1` [Example 405], `COc1ccn2ncc(-c3nnc(N[C@H]4N=C(c5ccccc5)c5ccccc5NC4=O)o3)c2c1` [Example 410] is higher in EC50: < 400 nM for the first, > 800 nM for the second.

`COc1ccc2nccc(-c3nnc(N[C@H]4N=C(c5ccccc5)c5ccccc5NC4=O)o3)c2c1` [Example 408] and `COCc1ccc2nccc(-c3nnc(N[C@H]4N=C(c5ccccc5)c5ccccc5NC4=O)o3)c2c1` [Example 409] cannot be ordered by EC50: > 800 nM for the first, > 800 nM for the second.

In the case of `COCCc1cccn2ncc(-c3nnc(N[C@H]4N=C(c5ccccc5)c5ccccc5NC4=O)o3)c12` [Example 411], the EC50 is reported as > 800 nM.
